Molecular target: Skeletal Myofibril ATPase (Rabbit Psoas myofibrils)
Experiment: Skeletal Myofibril ATPase Assay
Format: biochemical
Conditions: PK/LDH-coupled NADH absorbance at 340 nm
Experimental: Overview: Myosin ATPase activity was assessed by using a coupled reaction system, in which ADP generated by the myosin ATPase function was coupled to the disappearance of NADH through the pyruvate kinase/lactate dehydrogenase (PK-LDH) system. Myosin ATPase activity produces ADP, which was used as a substrate for PK to produce pyruvate and regenerate ATP. The pyruvate was then used as a substrate by LDH to oxidize NADH to NAD+. The rate of the reaction was monitored through the time-dependent disappearance of NADH using absorbance at 340 nm. Inhibition of ATPase activity by the assayed compounds was indicated by a reduced rate of NADH loss, relative to vehicle-treated controls, over the experimental time window. To assess the selectivity of the assayed compounds for skeletal myofibrils, the compounds were counter-screened in cardiac myofibrils.
Materials: The following stock solutions and reagents were used in the Skeletal Myofibril ATPase Assay:
Stock Solutions of pCa buffer. Combine PIPES, CaCl2, and EGTA solutions with 70 mL of water. Adjust pH to 7.0 and bring final volume to 100 mL.
Buffer A & Buffer B. Buffers were stored on ice until use.
Skeletal Myofibril ATPase Assay Procedure: BSA, ATP, NADH, PEP, and DTT solutions were thawed at room temperature, then transferred to ice. Pellet-frozen myofibrils (approximately twice the required volume) were transferred into a sufficiently large tube and capped. Myofibrils were thawed by rolling in a water bath for approximately 15 min at room temperature and cooled on ice. Buffers A and B were prepared by adjusting volumes as necessary for required number of wells and stored on ice. 0.5 μL of the compounds to be assayed were added into wells of a 384-well plate. Buffers A and B were mixed by inversion immediately prior to use, then 25 μL of each was dispensed using a Multidrop dispenser (Buffer A first, then Buffer B). The absorbance within the wells was measured at 340 nm, using a kinetic protocol in which the wells are read every 1.5-2 min for 1 h. The reaction rate was qualitatively assessed by subtracting the minimum absorbance value from the maximum value for each well, using either the SoftMax Pro plate reader software or a spreadsheet program such as Excel. Using GraphPad Prism 8.0, the data was normalized, with 100% activity defined as the absorbance change in the 1% DMSO vehicle wells and 0% assigned to no change in absorbance over the course of the experiment. The normalized data were fit to a variable-slope four-parameter logistic model, constraining the bottom to be 0 or greater. Compounds of Table 1 to 3 were tested and results of the assay appear in Table 4 herein. A=IC50 is less than or equal to 10 μM; B=IC50 is greater than 10 μM and less than 100 μM; C=IC50 is greater than 100 μM.

Row | SMILES | IC50 [µM]
1 | O=c1ccc(-c2nc(-c3ccc(F)cc3)no2)cn1Cc1cccnc1 [Compound 104, 5-(3-(4-fluorophenyl)-1,2,4-oxadiazol-5-yl)-1-(pyridin-3-ylmethyl)pyridin-2(1H)-one] | ≤ 10
2 | COCCn1nc(-c2nc(-c3ccc(F)c(F)c3)no2)ccc1=O [Compound 75, 6-(3-(3,4-difluorophenyl)-1,2,4-oxadiazol-5-yl)-2-(2-methoxyethyl)pyridazin-3(2H)-one] | 10 to 100
3 | O=C(Cn1nc(-c2cccs2)ccc1=O)Nc1ccc2c(c1)OCO2 [Compound 47, N-(benzo[d][1,3]dioxol-5-yl)-2-(6-oxo-3-(thiophen-2-yl)pyridazin-1(6H)-yl)acetamide] | > 100
4 | O=c1ccc(-c2nc(-c3cncc(F)c3)no2)cn1Cc1cccnc1 [Compound 108, 5-(3-(5-fluoropyridin-3-yl)-1,2,4-oxadiazol-5-yl)-1-(pyridin-3-ylmethyl)pyridin-2(1H)-one] | 10 to 100
5 | CCNC(=O)Cn1nc(-c2ncc(-c3cccc(Cl)c3)s2)ccc1=O [Compound 25, 2-(3-(5-(3-chlorophenyl)thiazol-2-yl)-6-oxopyridazin-1(6H)-yl)-N-ethylacetamide] | ≤ 10
6 | O=c1ccc(-c2nc(-c3ccsc3)no2)cn1Cc1ccccc1C(F)(F)F [Compound 115, 5-(3-(thiophen-3-yl)-1,2,4-oxadiazol-5-yl)-1-(2-(trifluoromethyl)benzyl)pyridin-2(1H)-one] | > 120
7 | Cc1cccc(-c2noc(-c3ccc(=O)n(Cc4cccnc4C#N)c3)n2)c1 [Compound 112, 3-((2-oxo-5-(3-(m-tolyl)-1,2,4-oxadiazol-5-yl)pyridin-1(2H)-yl)methyl)picolinonitrile] | > 120
8 | Cc1cccc(-c2noc(-c3ccc(=O)n(Cc4ccc(OC(F)F)nc4)c3)n2)c1 [Compound 93, 1-((6-(difluoromethoxy)pyridin-3-yl)methyl)-5-(3-(m-tolyl)-1,2,4-oxadiazol-5-yl)pyridin-2(1H)-one] | ≤ 10
9 | Cc1cccc(-c2noc(-c3ccc(=O)n(Cc4cccnc4)c3)n2)c1 [Compound 94, 1-(pyridin-3-ylmethyl)-5-(3-(m-tolyl)-1,2,4-oxadiazol-5-yl)pyridin-2(1H)-one] | ≤ 10
10 | O=c1ccc(-c2nc(C3CC3)no2)cn1Cc1c(F)cccc1Cl [Compound 123, 1-(2-chloro-6-fluorobenzyl)-5-(3-cyclopropyl-1,2,4-oxadiazol-5-yl)pyridin-2(1H)-one] | > 120
11 | COc1ccc(NC(=O)Cn2nc(-c3ccco3)ccc2=O)c(OC)c1 [Compound 52, N-(2,4-dimethoxyphenyl)-2-(3-(furan-2-yl)-6-oxopyridazin-1(6H)-yl)acetamide] | 10 to 100
12 | CCCCn1nc(-c2nc(-c3ccc(F)cc3)no2)ccc1=O [Compound 76, 2-butyl-6-(3-(4-fluorophenyl)-1,2,4-oxadiazol-5-yl)pyridazin-3(2H)-one] | ≤ 10
13 | CCNC(=O)Cn1nc(-c2nc(C3CC3)no2)ccc1=O [Compound 15, 2-(3-(3-cyclopropyl-1,2,4-oxadiazol-5-yl)-6-oxopyridazin-1(6H)-yl)-N-ethylacetamide] | 10 to 100
14 | O=c1ccc(-c2nc(-c3ccncc3)no2)cn1Cc1ccc(Cl)cc1 [Compound 119, 1-(4-chlorobenzyl)-5-(3-(pyridin-4-yl)-1,2,4-oxadiazol-5-yl)pyridin-2(1H)-one] | > 120
15 | O=C(Cn1nc(-c2ccco2)ccc1=O)NCc1ccccc1F [Compound 53, N-(2-fluorobenzyl)-2-(3-(furan-2-yl)-6-oxopyridazin-1(6H)-yl)acetamide] | > 100
16 | O=C(Cn1nc(-c2cccs2)ccc1=O)Nc1ccccc1 [Compound 43, 2-(6-oxo-3-(thiophen-2-yl)pyridazin-1(6H)-yl)-N-phenylacetamide] | > 100
17 | O=c1ccc(-c2nc(-c3ccccc3Cl)no2)cn1Cc1cccnc1 [Compound 110, 5-(3-(2-chlorophenyl)-1,2,4-oxadiazol-5-yl)-1-(pyridin-3-ylmethyl)pyridin-2(1H)-one] | 10 to 100

From patent publication US12643892B2, “Pyridazinone compounds for the treatment of neuromuscular diseases” (Edgewise Therapeutics, Inc., priority 2020, dated 2026)
